# Publication PMC5513037, “Examining the influence of specificity ligands and ATP-competitive ligands on the overall effectiveness of bivalent kinase inhibitors” (Proteome Science, 2017)
# Assays:
# Test in all cases: KAM-matrix competition in K562 lysate;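 on 0.001 uM KAM: median log10 fold change of treatment over DMSO control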;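 on 0.01 uM KAM: median log10 fold change of treatment over DMSO control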;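 on 0.1 uM KAM: median log10 fold change of treatment over DMSO control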;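 on 1 uM KAM: median log10 fold change of treatment over DMSO control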;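 on 10 uM KAM: median log10 fold change of treatment over DMSO control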
# Format in all cases: binding
# [1] = target: T1, CAMKK1 (Homo sapiens, UniProt Q8N5S9)
# T1 construct: endogenous in cells; host or cells: K562
# T1 sequence (Q8N5S9 whole entry): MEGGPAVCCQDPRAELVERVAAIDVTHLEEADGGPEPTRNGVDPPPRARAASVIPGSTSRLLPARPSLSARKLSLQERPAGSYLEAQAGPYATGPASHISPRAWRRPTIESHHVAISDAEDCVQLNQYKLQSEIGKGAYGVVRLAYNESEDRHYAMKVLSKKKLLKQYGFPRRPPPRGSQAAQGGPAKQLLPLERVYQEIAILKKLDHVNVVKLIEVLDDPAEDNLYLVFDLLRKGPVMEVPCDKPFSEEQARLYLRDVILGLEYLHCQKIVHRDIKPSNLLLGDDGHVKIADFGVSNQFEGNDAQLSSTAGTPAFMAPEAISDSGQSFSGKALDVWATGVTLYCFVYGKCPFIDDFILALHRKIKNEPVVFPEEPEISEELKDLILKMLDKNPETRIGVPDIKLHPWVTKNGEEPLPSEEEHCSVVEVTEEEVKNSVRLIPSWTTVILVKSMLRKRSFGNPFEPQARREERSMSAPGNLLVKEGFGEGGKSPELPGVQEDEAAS
# Protocol: (§1) Supplement 12953_2017_125_MOESM1_ESM.zip/MS_Supp Info.xlsx, sheet "KAM" | column: 10 uM KAM; 1 uM KAM; 0.1 uM KAM; 0.01 uM KAM; 0.001 uM KAM; RB50
# [2] = target: T2, STK38 (Homo sapiens, UniProt Q15208)
# T2 construct: endogenous in cells; host or cells: K562
# T2 sequence (Q15208 whole entry): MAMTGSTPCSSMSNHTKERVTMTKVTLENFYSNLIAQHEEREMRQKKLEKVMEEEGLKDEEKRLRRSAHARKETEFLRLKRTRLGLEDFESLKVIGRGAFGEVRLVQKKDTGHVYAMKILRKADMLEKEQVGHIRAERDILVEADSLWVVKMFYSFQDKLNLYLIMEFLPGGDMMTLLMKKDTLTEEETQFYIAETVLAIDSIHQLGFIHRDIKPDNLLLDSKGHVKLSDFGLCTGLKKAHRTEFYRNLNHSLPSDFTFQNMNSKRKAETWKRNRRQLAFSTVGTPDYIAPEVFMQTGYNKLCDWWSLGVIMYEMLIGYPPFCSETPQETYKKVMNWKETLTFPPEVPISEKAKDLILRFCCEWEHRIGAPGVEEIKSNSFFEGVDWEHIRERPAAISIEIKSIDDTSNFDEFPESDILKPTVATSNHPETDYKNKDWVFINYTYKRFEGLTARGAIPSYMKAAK
# Protocol: as §1
# [3] = target: T3, PKN2 (Homo sapiens, UniProt Q16513);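 on 0.001 uM KAM: median log10 fold change of treatment over DMSO control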;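 on 0.01 uM KAM: median log10 fold change of treatment over DMSO control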;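 on 0.1 uM KAM: median log10 fold change of treatment over DMSO control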;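 on 1 uM KAM: median log10 fold change of treatment over DMSO control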;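 on 10 uM KAM: median log10 fold change of treatment over DMSO control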
# T3 construct: endogenous in cells; host or cells: K562
# Protocol: as §1
# [4] = target: T4, CSNK2A1 (Homo sapiens, UniProt P68400)
# T4 construct: endogenous in cells; host or cells: K562
# T4 sequence (P68400 whole entry): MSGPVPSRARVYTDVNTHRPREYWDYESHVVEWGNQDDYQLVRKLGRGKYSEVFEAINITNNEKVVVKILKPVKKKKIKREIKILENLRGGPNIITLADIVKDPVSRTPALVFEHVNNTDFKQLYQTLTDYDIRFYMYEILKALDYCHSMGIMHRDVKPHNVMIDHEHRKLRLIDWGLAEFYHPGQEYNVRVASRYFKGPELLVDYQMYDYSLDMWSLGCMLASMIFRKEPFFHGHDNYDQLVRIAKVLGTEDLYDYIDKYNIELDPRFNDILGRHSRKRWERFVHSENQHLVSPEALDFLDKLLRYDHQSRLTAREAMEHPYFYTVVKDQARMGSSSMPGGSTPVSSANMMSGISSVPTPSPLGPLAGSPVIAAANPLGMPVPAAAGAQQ
# Protocol: as §1
# [5] = target: T5, OBSCN (Homo sapiens, UniProt Q5VST9);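 on 0.001 uM KAM: median log10 fold change of treatment over DMSO control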;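 on 0.01 uM KAM: median log10 fold change of treatment over DMSO control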;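 on 0.1 uM KAM: median log10 fold change of treatment over DMSO control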;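 on 1 uM KAM: median log10 fold change of treatment over DMSO control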;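 on 10 uM KAM: median log10 fold change of treatment over DMSO control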
# T5 construct: endogenous in cells; host or cells: K562
# Protocol: as §1
# [6] = target: T6, ACVR1B (Homo sapiens, UniProt P36896)
# T6 construct: endogenous in cells; host or cells: K562
# T6 sequence (P36896 24-505): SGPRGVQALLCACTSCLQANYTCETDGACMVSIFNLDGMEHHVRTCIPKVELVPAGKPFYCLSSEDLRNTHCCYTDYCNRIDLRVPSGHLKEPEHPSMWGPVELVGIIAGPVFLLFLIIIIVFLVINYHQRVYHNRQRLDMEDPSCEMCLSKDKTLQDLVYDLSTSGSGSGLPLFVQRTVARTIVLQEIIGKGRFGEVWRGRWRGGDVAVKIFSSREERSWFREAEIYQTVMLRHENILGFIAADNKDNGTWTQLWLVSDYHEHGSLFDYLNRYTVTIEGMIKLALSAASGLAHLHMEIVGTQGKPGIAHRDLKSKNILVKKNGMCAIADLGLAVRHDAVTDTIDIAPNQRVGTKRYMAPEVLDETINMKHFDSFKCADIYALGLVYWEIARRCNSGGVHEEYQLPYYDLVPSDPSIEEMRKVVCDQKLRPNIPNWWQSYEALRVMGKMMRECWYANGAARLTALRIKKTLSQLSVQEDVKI
# Protocol: as §1
# [7] = target: T7, STK24 (Homo sapiens, UniProt Q9Y6E0);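 on 0.001 uM KAM: median log10 fold change of treatment over DMSO control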;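 on 0.01 uM KAM: median log10 fold change of treatment over DMSO control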;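 on 0.1 uM KAM: median log10 fold change of treatment over DMSO control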;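 on 1 uM KAM: median log10 fold change of treatment over DMSO control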;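 on 10 uM KAM: median log10 fold change of treatment over DMSO control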
# T7 construct: endogenous in cells; host or cells: K562
# T7 sequence (Q9Y6E0 whole entry): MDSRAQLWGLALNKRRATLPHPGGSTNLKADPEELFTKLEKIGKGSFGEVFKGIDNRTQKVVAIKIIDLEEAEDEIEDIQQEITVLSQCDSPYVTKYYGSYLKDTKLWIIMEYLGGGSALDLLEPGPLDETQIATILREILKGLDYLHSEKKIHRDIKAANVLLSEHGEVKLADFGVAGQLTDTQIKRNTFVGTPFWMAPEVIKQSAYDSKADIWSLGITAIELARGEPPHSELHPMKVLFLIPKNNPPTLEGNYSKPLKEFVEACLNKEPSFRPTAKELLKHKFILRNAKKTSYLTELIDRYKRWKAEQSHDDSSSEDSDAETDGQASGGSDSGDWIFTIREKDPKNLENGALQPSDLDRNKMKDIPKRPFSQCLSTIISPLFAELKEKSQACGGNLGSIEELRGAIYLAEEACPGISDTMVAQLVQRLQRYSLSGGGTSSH
# Protocol: as §1
# [8] = target: T8, CAMK2G (Homo sapiens, UniProt Q13555);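 on 0.001 uM KAM: median log10 fold change of treatment over DMSO control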;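 on 0.01 uM KAM: median log10 fold change of treatment over DMSO control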;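 on 0.1 uM KAM: median log10 fold change of treatment over DMSO control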;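 on 1 uM KAM: median log10 fold change of treatment over DMSO control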;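 on 10 uM KAM: median log10 fold change of treatment over DMSO control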
# T8 construct: endogenous in cells; host or cells: K562
# T8 sequence (Q13555 whole entry): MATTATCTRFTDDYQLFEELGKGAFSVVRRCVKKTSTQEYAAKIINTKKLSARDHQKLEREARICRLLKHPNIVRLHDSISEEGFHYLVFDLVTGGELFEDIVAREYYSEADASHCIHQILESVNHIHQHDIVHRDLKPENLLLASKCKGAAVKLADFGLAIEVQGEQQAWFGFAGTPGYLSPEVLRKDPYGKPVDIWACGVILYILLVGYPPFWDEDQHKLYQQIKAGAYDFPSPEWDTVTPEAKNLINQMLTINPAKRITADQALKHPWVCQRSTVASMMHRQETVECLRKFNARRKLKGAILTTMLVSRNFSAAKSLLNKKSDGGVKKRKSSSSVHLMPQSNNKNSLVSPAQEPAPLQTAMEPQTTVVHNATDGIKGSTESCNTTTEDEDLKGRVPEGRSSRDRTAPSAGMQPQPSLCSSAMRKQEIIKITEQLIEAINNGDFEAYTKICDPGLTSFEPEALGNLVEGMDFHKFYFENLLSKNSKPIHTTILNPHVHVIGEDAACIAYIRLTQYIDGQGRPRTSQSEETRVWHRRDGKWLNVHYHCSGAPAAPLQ
# Protocol: as §1
# [9] = target: T9, HIPK3 (Homo sapiens, UniProt Q9H422);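 on 0.001 uM KAM: median log10 fold change of treatment over DMSO control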;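 on 0.01 uM KAM: median log10 fold change of treatment over DMSO control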;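 on 0.1 uM KAM: median log10 fold change of treatment over DMSO control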;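 on 1 uM KAM: median log10 fold change of treatment over DMSO control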;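 on 10 uM KAM: median log10 fold change of treatment over DMSO control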
# T9 construct: endogenous in cells; host or cells: K562 cells (combined S0.8 and P0.8 lysate)
# T9 sequence (Q9H422 whole entry): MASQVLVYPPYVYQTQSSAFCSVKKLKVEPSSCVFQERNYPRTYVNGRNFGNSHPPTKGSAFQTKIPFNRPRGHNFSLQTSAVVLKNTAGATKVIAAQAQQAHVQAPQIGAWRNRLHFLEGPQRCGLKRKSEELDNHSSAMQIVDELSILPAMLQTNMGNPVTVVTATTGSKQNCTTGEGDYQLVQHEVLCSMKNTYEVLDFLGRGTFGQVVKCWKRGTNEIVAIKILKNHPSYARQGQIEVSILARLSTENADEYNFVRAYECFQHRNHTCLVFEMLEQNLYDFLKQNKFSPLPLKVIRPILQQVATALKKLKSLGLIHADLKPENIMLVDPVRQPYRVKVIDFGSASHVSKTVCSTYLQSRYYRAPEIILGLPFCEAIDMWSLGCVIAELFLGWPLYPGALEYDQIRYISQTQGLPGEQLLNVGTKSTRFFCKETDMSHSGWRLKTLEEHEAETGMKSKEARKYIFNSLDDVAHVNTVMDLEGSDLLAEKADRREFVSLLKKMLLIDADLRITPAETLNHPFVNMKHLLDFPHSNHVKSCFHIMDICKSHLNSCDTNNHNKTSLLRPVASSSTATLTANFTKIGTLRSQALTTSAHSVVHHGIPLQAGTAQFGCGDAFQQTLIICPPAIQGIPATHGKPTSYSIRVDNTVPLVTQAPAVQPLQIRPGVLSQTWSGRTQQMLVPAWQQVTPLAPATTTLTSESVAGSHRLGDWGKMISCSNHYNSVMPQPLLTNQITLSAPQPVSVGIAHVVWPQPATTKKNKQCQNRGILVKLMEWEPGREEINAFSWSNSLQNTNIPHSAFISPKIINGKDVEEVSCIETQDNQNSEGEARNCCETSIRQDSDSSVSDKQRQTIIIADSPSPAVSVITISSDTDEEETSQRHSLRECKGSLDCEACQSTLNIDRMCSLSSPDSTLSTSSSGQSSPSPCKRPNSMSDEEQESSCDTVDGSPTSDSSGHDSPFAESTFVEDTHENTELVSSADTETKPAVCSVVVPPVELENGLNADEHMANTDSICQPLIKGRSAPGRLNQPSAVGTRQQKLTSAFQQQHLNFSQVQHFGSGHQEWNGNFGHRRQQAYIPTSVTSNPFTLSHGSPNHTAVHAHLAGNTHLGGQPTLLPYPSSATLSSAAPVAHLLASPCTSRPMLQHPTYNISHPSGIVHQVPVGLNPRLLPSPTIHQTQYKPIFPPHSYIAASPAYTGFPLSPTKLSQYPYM
# Protocol: as §1
# [10] = target: LIMK1 (Homo sapiens, UniProt P53667);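 on 0.001 uM KAM: median log10 fold change of treatment over DMSO control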;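 on 0.01 uM KAM: median log10 fold change of treatment over DMSO control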;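 on 0.1 uM KAM: median log10 fold change of treatment over DMSO control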;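 on 1 uM KAM: median log10 fold change of treatment over DMSO control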;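 on 10 uM KAM: median log10 fold change of treatment over DMSO control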
# LIMK1, sequence (P53667 whole entry): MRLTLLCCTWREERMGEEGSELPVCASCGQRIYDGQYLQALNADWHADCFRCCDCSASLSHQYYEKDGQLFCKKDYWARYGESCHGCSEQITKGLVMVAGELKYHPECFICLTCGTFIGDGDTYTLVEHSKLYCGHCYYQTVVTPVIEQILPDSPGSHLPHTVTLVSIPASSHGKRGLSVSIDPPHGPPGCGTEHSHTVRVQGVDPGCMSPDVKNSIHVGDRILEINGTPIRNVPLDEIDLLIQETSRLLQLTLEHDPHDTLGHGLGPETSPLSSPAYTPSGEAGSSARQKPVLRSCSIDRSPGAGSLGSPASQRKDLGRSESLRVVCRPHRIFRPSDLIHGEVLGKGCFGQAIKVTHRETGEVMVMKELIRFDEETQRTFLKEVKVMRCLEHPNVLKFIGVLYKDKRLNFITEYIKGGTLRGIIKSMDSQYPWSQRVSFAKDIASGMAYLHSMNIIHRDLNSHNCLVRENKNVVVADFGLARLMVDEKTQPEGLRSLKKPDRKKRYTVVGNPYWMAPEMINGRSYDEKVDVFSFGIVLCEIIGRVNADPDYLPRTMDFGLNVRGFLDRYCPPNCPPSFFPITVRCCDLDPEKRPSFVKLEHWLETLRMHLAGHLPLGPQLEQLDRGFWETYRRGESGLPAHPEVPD
# Protocol: as §1
# [11] = target: T10, TGFBR1 (Homo sapiens, UniProt P36897)
# T10 construct: endogenous in cells; host or cells: K562
# T10 sequence (P36897 34-503): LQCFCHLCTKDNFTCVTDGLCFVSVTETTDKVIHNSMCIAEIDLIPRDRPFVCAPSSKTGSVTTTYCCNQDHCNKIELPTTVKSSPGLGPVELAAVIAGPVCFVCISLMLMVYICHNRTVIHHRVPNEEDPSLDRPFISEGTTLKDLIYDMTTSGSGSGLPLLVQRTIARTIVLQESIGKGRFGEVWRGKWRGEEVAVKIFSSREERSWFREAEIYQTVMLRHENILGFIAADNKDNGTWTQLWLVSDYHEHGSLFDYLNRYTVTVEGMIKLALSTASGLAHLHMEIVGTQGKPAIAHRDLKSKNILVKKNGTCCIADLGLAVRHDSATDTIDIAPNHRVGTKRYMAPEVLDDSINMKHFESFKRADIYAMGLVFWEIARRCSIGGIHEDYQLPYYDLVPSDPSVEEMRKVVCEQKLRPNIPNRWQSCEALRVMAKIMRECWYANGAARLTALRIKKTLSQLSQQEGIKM
# Protocol: as §1
# [12] = target: T11, CDK10 (Homo sapiens, UniProt Q15131)
# T11 construct: endogenous in cells; host or cells: K562
# T11 sequence (Q15131 whole entry): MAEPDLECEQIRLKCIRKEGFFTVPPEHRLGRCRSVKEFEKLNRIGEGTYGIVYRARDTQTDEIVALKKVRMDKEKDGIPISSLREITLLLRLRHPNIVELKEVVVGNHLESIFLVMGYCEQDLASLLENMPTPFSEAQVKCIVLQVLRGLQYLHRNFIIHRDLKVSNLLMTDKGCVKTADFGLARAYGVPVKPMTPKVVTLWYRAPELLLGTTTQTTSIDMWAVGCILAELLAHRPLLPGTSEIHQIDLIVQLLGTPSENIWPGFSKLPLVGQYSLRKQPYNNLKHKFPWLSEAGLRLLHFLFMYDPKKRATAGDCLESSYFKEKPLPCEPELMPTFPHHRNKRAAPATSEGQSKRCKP
# Protocol: as §1
# [13] = read-out: RB50 (the source's name)
# [14] = KAM 0.001-10 uM, read-out: RB50 (the source's name)
smiles,measurement,setting,value
N#CCc1ccc(Nc2nc(NCCCN)cc(Nc3cc(C4CC4)[nH]n3)n2)cc1 [KAM],median Log10 fold change,[1]; 0.001 uM KAM,-0.02592
same,median Log10 fold change,[1]; 0.01 uM KAM,-0.02355
same,median Log10 fold change,[1]; 0.1 uM KAM,-0.2718
same,median Log10 fold change,[1]; 1 uM KAM,-0.415
same,median Log10 fold change,[1]; 10 uM KAM,-0.4583
same,IC50,[1]; [13],0.248 µM
same,median Log10 fold change,[2]; 0.001 uM KAM,-0.121
same,median Log10 fold change,[2]; 0.01 uM KAM,-0.04373
same,median Log10 fold change,[2]; 0.1 uM KAM,-0.1647
same,median Log10 fold change,[2]; 1 uM KAM,-0.3238
same,median Log10 fold change,[2]; 10 uM KAM,-0.6242
same,IC50,[2]; [13],0.752 µM
same,IC50,[3]; [14],> 10 µM
same,0.001 uM KAM,[3]; relative to 0 uM KAM = 0,-0.006639
same,0.01 uM KAM,[3]; relative to 0 uM KAM = 0,0.00337
same,0.1 uM KAM,[3]; relative to 0 uM KAM = 0,-0.04124
same,1 uM KAM,[3]; relative to 0 uM KAM = 0,-0.08858
same,10 uM KAM,[3]; relative to 0 uM KAM = 0,-0.1344
same,median Log10 fold change,[4]; 0.001 uM KAM,-0.001285
same,median Log10 fold change,[4]; 0.01 uM KAM,-0.02001
same,median Log10 fold change,[4]; 0.1 uM KAM,-0.3204
same,median Log10 fold change,[4]; 1 uM KAM,-0.6577
same,median Log10 fold change,[4]; 10 uM KAM,-0.7357
same,IC50,[4]; [13],0.117 µM
same,IC50,[5]; [14],> 10 µM
same,0.001 uM KAM,[5]; relative to 0 uM KAM = 0,-0.03363
same,0.01 uM KAM,[5]; relative to 0 uM KAM = 0,0.02355
same,0.1 uM KAM,[5]; relative to 0 uM KAM = 0,-0.066
same,1 uM KAM,[5]; relative to 0 uM KAM = 0,-0.08935
same,10 uM KAM,[5]; relative to 0 uM KAM = 0,-0.04979
same,median Log10 fold change,[6]; 0.001 uM KAM,-0.01715
same,median Log10 fold change,[6]; 0.01 uM KAM,-0.04575
same,median Log10 fold change,[6]; 0.1 uM KAM,-0.2439
same,median Log10 fold change,[6]; 1 uM KAM,-0.5931
same,median Log10 fold change,[6]; 10 uM KAM,-0.7717
same,IC50,[6]; [13],0.169 µM
same,IC50,[7]; [14],> 10 µM
same,0.001 uM KAM,[7]; relative to 0 uM KAM = 0,-0.01012
same,0.01 uM KAM,[7]; relative to 0 uM KAM = 0,-0.03939
same,0.1 uM KAM,[7]; relative to 0 uM KAM = 0,-0.06162
same,1 uM KAM,[7]; relative to 0 uM KAM = 0,-0.2602
same,10 uM KAM,[7]; relative to 0 uM KAM = 0,-0.2058
same,IC50,[8]; [14],> 10 µM
same,0.001 uM KAM,[8]; relative to 0 uM KAM = 0,-0.0014
same,0.01 uM KAM,[8]; relative to 0 uM KAM = 0,0.01571
same,0.1 uM KAM,[8]; relative to 0 uM KAM = 0,-0.03365
same,1 uM KAM,[8]; relative to 0 uM KAM = 0,-0.07588
same,10 uM KAM,[8]; relative to 0 uM KAM = 0,-0.2109
same,IC50,[9]; [14],> 10 µM
same,0.001 uM KAM,[9]; relative to 0 uM KAM = 0,-0.01362
same,0.01 uM KAM,[9]; relative to 0 uM KAM = 0,-0.04323
same,0.1 uM KAM,[9]; relative to 0 uM KAM = 0,-0.04392
same,1 uM KAM,[9]; relative to 0 uM KAM = 0,-0.1209
same,10 uM KAM,[9]; relative to 0 uM KAM = 0,-0.16
same,IC50,[10]; [14],> 10 µM
same,0.001 uM KAM,[10]; relative to 0 uM KAM = 0,-0.03519
same,0.01 uM KAM,[10]; relative to 0 uM KAM = 0,-0.04768
same,0.1 uM KAM,[10]; relative to 0 uM KAM = 0,-0.0434
same,1 uM KAM,[10]; relative to 0 uM KAM = 0,0.03552
same,10 uM KAM,[10]; relative to 0 uM KAM = 0,-0.3303
same,median Log10 fold change,[11]; 0.001 uM KAM,0.003086
same,median Log10 fold change,[11]; 0.01 uM KAM,-0.03819
same,median Log10 fold change,[11]; 0.1 uM KAM,-0.2662
same,median Log10 fold change,[11]; 1 uM KAM,-0.4673
same,median Log10 fold change,[11]; 10 uM KAM,-0.5096
same,IC50,[11]; [13],0.202 µM
same,median Log10 fold change,[12]; 0.001 uM KAM,0.01311
same,median Log10 fold change,[12]; 0.01 uM KAM,-0.05132
same,median Log10 fold change,[12]; 0.1 uM KAM,-0.3516
same,median Log10 fold change,[12]; 1 uM KAM,-0.4253
same,median Log10 fold change,[12]; 10 uM KAM,-0.3533
same,IC50,[12]; [13],0.13 µM
